Experiments:
[1] = target: T1, α6β4^L121F (human α6β4 nAChR, L121F in β4) (Homo sapiens, UniProt P30926+Q15825, L142F); test: cell-based
[2] = target: T1, α6β4^L121F (human α6β4 nAChR, L121F in β4); conditions: L121F vs WT, two-electrode voltage clamp
[3] = system: pain; conditions: mice; cited from earlier work
[4] = target: human α6β4 nAChR (α6β4^WT) (Homo sapiens, UniProt P30926+Q15825); test: Two-electrode voltage clamp in Xenopus oocytes, wild-type α6β4; assay type: cell-based; conditions: times higher affinity than nicotine
[5] = system: neuropathic pain; conditions: cited from earlier work

T1 sequence (Q15825 31-494 limits assumed): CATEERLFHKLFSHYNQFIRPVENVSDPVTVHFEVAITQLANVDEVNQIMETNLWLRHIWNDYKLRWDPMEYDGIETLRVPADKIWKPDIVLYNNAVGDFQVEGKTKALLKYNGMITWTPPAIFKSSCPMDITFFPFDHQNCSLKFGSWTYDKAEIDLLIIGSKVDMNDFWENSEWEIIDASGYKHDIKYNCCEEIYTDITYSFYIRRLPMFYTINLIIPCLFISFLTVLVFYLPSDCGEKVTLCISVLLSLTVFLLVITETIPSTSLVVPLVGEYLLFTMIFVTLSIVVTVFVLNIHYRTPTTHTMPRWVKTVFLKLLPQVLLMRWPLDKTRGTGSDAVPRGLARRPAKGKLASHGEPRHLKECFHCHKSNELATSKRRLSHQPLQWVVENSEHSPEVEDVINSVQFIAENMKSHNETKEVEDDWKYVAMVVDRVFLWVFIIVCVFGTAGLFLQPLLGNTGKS
T1 sequence (P30926 22-498 L142F): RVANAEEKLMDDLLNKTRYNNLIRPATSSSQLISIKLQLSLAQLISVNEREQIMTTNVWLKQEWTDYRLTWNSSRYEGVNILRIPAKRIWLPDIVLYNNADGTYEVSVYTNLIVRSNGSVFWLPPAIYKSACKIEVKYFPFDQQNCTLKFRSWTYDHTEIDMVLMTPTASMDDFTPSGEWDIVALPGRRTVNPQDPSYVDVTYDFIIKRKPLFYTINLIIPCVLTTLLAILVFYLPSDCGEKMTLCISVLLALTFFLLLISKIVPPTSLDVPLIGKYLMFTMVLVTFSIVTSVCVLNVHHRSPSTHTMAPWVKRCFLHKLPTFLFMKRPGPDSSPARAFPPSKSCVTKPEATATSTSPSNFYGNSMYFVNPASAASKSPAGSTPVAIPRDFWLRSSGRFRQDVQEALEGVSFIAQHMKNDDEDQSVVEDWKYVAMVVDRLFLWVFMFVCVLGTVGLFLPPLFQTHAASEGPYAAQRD
Chain of human α6β4 nAChR (α6β4^WT) (Q15825 31-494 limits assumed): as the sequence (Q15825 31-494 limits assumed) above
Chain of human α6β4 nAChR (α6β4^WT) (P30926 22-498): as the sequence (P30926 22-498 L142F) above, with F121L counted along it

| Compound | EC50 [1] [µM] | increase of binding affinity of α6β4 for nicotine by L121F mutation in β4 [2] | analgesic effect [3] | affinity for α6β4 relative to nicotine [4] | analgesic activity against neuropathic pain [5] |
| --- | --- | --- | --- | --- | --- |
| CN1CCC[C@H]1c1cccnc1 [nicotine] | 2.2 ± 0.4 | approximately 10 fold | effective analgesics | – | – |
| Clc1ccc(OC[C@H]2CCN2)cn1 [tebanicline, (R)-5-(2-azetidinylmethoxy)-2-chloropyridine] | – | – | effective analgesics | approximately 50 times | potent analgesic activity |
